# Test results reported in US6627628B1, “Substituted 4-amino-2-aryl-cyclopenta[d]pyrimidines, their production and use and pharmaceutical preparations containing same” (Aventis Pharma Deutschland, GmbH, priority 1998, dated 2003).
row,SMILES,melting point [°C]
1,Cl.Cl.Clc1ccc(-c2nc3c(c(N(Cc4ccccc4)C4CCNCC4)n2)CCC3)cc1,275
2,COc1cccc(CCNc2nc(-c3cccc(Cl)c3)nc3c2CCC3)c1.Cl,192
3,COc1cccc(CCNc2nc(-c3ccc(Cl)cc3)nc3c2CCC3)c1.Cl,230
4,COCCNc1nc(-c2ccc(Cl)cc2)nc2c1CCC2.Cl,208
5,"OCCNc1nc(-c2ccc(Cl)cc2)nc2c1CCC2 [Example 18, 2-(4-Chlorophenyl)-4-(2-hydroxyethylamino)-6,7-dihydro-5H-cyclopenta[d]-pyrimidine]",160
6,"Clc1ccc(-c2nc3c(c(NCc4cccnc4)n2)CCC3)cc1 [Example 19, 2-(4-Chlorophenyl)-4-((3-pyridylmethyl)amino)-6,7-dihydro-5H-cyclopenta[d]-pyrimidine]",209
7,"Clc1cccc(-c2nc3c(c(N4CCOCC4)n2)CCC3)c1 [Example 20, 2-(3-Chlorophenyl)-4-morpholino-6,7-dihydro-5H-cyclopenta[d]pyrimidine]",132
8,"OCCNc1nc(-c2cccc(Cl)c2)nc2c1CCC2 [Example 21, 2-(3-Chlorophenyl)-4-(2-hydroxyethylamino)-6,7-dihydro-5H-cyclopenta[d]-pyrimidine]",150
9,"Clc1cccc(-c2nc3c(c(NCc4cccnc4)n2)CCC3)c1 [Example 22, 2-(3-Chlorophenyl)-4-((3-pyridylmethyl)amino)-6,7-dihydro-5H-cyclopenta[d]-pyrimidine]",185
10,"Clc1ccc(-c2nc3c(c(N4CCSCC4)n2)CCC3)cc1 [Example 24, 2-(4-Chlorophenyl)-4-thiomorpholino-6,7-dihydro-5H-cyclopenta[d]pyrimidine]",159
11,"CC(C)CNc1nc(-c2ccc(Cl)cc2)nc2c1CCC2 [Example 29, 2-(4-Chlorophenyl)-4-isobutylamino-6,7-dihydro-5H-cyclopenta[d]pyrimidine]",121
12,"CC1(C)CC(Nc2nc(-c3cccc(Cl)c3)nc3c2CCC3)CC(C)(C)N1 [Example 31, 2-(3-Chlorophenyl)-4-(2,2,6,6-tetramethylpiperidin-4-ylamino)-6,7-dihydro-5H-cyclopenta[d]pyrimidine]",182
13,"Clc1cccc(-c2nc3c(c(N4CCCC4)n2)CCC3)c1 [Example 36, 2-(3-Chlorophenyl)-4-pyrrolidino-6,7-dihydro-5H-cyclopenta[d]pyrimidine]",150
14,"Clc1cccc(-c2nc3c(c(N4CCSCC4)n2)CCC3)c1 [Example 38, 2-(3-Chlorophenyl)-4-thiomorpholino-6,7-dihydro-5H-cyclopenta[d]pyrimidine]",134
15,"Cc1ccc(-c2nc3c(c(NCCO)n2)CCC3)cc1 [Example 39, 2-(4-Methylphenyl)-4-(2-hydroxyethylamino)-6,7-dihydro-5H-cyclopenta[d]-pyrimidine]",191
16,"Cc1ccc(-c2nc3c(c(N4CCCC4)n2)CCC3)cc1 [Example 46, 2-(4-Methylphenyl)-4-pyrrolidino-6,7-dihydro-5H-cyclopenta[d]pyrimidine]",203
17,"Cc1ccc(-c2nc3c(c(N4CCSCC4)n2)CCC3)cc1 [Example 47, 2-(4-Methylphenyl)-4-thiomorpholino-6,7-dihydro-5H-cyclopenta[d]pyrimidine]",160
18,"CCCN(CCC)c1nc(-c2cc(Cl)cc(Cl)c2)nc2c1CCC2 [Example 52, 2-(3,5-Dichlorophenyl)-4-dipropylamino-6,7-dihydro-5H-cyclopenta[d]pyrimidine]",120

# The next lines start with the values.
row,melting point [°C],SMILES
1,147,"Clc1cc(Cl)cc(-c2nc3c(c(N4CCCCC4)n2)CCC3)c1 [Example 53, 2-(3,5-Dichlorophenyl)-4-piperidino-6,7-dihydro-5H-cyclopenta[d]pyrimidine]"
2,165,"COc1ccc(-c2nc3c(c(NCCCO)n2)CCC3)cc1 [Example 54, 2-(4-Methoxyphenyl)-4-(3-hydroxypropylamino)-6,7-dihydro-5H-cyclopenta[d]-pyrimidine]"
3,119,"CCCCNc1nc(-c2ccc(OC)cc2)nc2c1CCC2 [Example 55, 2-(4-Methoxyphenyl)-4-butylamino-6,7-dihydro-5H-cyclopenta[d]pyrimidine]"
4,154,"COc1ccc(-c2nc3c(c(NC4CCCC4)n2)CCC3)cc1 [Example 56, 2-(4-Methoxyphenyl)-4-cyclopentylamino-6,7-dihydro-5H-cyclopenta[d]-pyrimidine]"
5,138,"COc1ccc(-c2nc3c(c(NC4CCCCC4)n2)CCC3)cc1 [Example 57, 2-(4-Methoxyphenyl)-4-cyclohexylamino-6,7-dihydro-5H-cyclopenta[d]-pyrimidine]"
6,145,"COc1ccc(-c2nc3c(c(NCCc4ccccc4Cl)n2)CCC3)cc1 [Example 58, 2-(4-Methoxyphenyl)-4-(2-(2-chlorophenyl)ethylamino)-6,7-dihydro-5H-cyclopenta[d]pyrimidine]"
7,74,"CCCN(CCC)c1nc(-c2ccc(OC)cc2)nc2c1CCC2 [Example 59, 2-(4-Methoxyphenyl)-4-dipropylamino-6,7-dihydro-5H-cyclopenta[d]pyrimidine]"
8,99,"COc1ccc(-c2nc3c(c(N4CCCCCC4)n2)CCC3)cc1 [Example 60, 2-(4-Methoxyphenyl)-4-hexamethyleneimino-6,7-dihydro-5H-cyclopenta[d]-pyrimidine]"
9,192,"COc1ccc(-c2nc3c(c(N4CCOCC4)n2)CCC3)cc1 [Example 61, 2-(4-Methoxyphenyl)-4-morpholino-6,7-dihydro-5H-cyclopenta[d]pyrimidine]"
10,107,"COCCCNc1nc(-c2ccc(OC)c(OC)c2)nc2c1CCC2 [Example 62, 2-(3,4-Dimethoxyphenyl)-4-(3-methoxypropylamino)-6,7-dihydro-5H-cyclopenta-[d]pyrimidine]"
11,138,"COc1ccc(-c2nc3c(c(NC4CCCC4)n2)CCC3)cc1OC [Example 63, 2-(3,4-Dimethoxyphenyl)-4-cyclopentylamino-6,7-dihydro-5H-cyclopenta[d]-pyrimidine]"
12,70,"COc1ccc(-c2nc3c(c(NC4CCCCC4)n2)CCC3)cc1OC [Example 64, 2-(3,4-Dimethoxyphenyl)-4-cyclohexylamino-6,7-dihydro-5H-cyclopenta[d]-pyrimidine]"
13,115,"CCCCNc1nc(-c2ccc(OC)c(OC)c2)nc2c1CCC2 [Example 65, 2-(3,4-Dimethoxyphenyl)-4-butylamino-6,7-dihydro-5H-cyclopenta[d]pyrimidine]"
14,107,"CCCN(CCC)c1nc(-c2ccc(OC)c(OC)c2)nc2c1CCC2 [Example 66, 2-(3,4-Dimethoxyphenyl)-4-dipropylamino-6,7-dihydro-5H-cyclopenta[d]-pyrimidine]"
15,142,"COc1ccc(-c2nc3c(c(N4CC(C)OC(C)C4)n2)CCC3)cc1OC (stereo not shown) [Example 67, 2-(3,4-Dimethoxyphenyl)-4-(2,6-dimethylmorpholino)-6,7-dihydro-5H-cyclopenta[d]pyrimidine]"
16,115,"COc1ccc(-c2nc3c(c(N(CCO)CCO)n2)CCC3)cc1OC [Example 68, 2-(3,4-Dimethoxyphenyl)-4-(di-(2-hydroxyethyl)amino)-6,7-dihydro-5H-cyclopenta[d]pyrimidine]"
17,130,"COCCCNc1nc(-c2ccc(C#N)cc2)nc2c1CCC2 [Example 69, 2-(4-Cyanophenyl)-4-(3-methoxypropylamino)-6,7-dihydro-5H-cyclopenta[d]-pyrimidine]"
18,168,"N#Cc1ccc(-c2nc3c(c(NCc4ccccc4)n2)CCC3)cc1 [Example 70, 2-(4-Cyanophenyl)-4-benzylamino-6,7-dihydro-5H-cyclopenta[d]pyrimidine]"
19,130,"CCN(CC)c1nc(-c2ccc(C#N)cc2)nc2c1CCC2 [Example 71, 2-(4-Cyanophenyl)-4-diethylamino-6,7-dihydro-5H-cyclopenta[d]pyrimidine]"
20,152,"N#Cc1ccc(-c2nc3c(c(N4CCCCC4)n2)CCC3)cc1 [Example 72, 2-(4-Cyanophenyl)-4-piperidino-6,7-dihydro-5H-cyclopenta[d]pyrimidine]"
21,247,"N#Cc1ccc(-c2nc3c(c(N4CCOCC4)n2)CCC3)cc1 [Example 73, 2-(4-Cyanophenyl)-4-morpholino-6,7-dihydro-5H-cyclopenta[d]pyrimidine]"
22,219,"N#Cc1ccc(-c2nc3c(c(NCc4cccnc4)n2)CCC3)cc1 [Example 74, 2-(4-Cyanophenyl)-4-((3-pyridylmethyl)amino)-6,7-dihydro-5H-cyclopenta[d]-pyrimidine]"
